Assay results taken from the Kinase Knowledgebase extract (Sharma et al. 2016).

target: ROCK1;ROCK2 (UniProt O75116); assay: Inhibition of ROCK Kinase Activity
Sequence (O75116 whole entry, looked up): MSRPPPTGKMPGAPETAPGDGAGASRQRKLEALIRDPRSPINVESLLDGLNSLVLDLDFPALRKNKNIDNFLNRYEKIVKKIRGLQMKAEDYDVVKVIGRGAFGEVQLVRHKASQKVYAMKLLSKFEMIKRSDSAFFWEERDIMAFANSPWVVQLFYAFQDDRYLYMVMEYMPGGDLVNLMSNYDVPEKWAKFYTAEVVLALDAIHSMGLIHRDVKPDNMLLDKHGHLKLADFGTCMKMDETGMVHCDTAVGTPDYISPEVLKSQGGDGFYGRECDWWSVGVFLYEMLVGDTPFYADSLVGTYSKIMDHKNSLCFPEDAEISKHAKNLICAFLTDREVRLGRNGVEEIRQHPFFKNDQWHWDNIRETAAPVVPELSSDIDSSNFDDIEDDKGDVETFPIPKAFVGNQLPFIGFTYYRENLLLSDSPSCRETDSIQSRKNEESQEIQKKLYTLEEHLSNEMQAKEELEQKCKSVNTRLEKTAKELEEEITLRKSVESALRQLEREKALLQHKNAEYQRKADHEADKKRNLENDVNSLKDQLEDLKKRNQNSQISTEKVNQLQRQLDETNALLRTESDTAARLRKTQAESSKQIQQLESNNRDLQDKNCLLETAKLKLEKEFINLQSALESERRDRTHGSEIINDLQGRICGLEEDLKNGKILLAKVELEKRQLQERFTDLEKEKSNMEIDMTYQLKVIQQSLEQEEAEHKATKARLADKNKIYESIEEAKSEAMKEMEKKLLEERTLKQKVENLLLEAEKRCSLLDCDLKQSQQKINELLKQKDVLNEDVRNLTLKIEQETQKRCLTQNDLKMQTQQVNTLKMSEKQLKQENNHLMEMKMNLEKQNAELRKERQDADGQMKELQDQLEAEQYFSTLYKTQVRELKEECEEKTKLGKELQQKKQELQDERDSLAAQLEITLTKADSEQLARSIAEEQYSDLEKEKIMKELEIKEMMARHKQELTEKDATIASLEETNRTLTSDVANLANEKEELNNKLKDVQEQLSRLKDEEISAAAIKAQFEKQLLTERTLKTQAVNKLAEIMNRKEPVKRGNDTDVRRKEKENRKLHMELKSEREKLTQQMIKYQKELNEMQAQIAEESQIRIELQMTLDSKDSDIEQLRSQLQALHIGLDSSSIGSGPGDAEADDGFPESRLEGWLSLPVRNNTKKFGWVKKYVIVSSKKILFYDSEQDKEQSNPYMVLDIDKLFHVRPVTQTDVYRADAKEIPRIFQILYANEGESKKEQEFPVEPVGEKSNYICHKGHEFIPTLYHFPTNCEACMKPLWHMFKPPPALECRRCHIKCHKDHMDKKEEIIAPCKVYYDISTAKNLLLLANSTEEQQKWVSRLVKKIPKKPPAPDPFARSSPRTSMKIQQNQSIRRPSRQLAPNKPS

Row | Ki | Structure (SMILES)
1 | ≤ 2000 nM | O=C(CSc1cccc(O)c1)Nc1ccc2c(c1)C(=O)NC2=O
2 | ≤ 2000 nM | O=C(CSc1ccccc1)Nc1ccc2c(c1)C(=O)NC2=O
3 | ≤ 2000 nM | O=C(CSc1ccc(F)c(Cl)c1)Nc1ccc2c(c1)C(=O)NC2=O
4 | ≤ 2000 nM | O=C(CSc1cccc(Cl)c1Cl)Nc1ccc2c(c1)C(=O)NC2=O
5 | ≤ 2000 nM | O=C(CSc1ccccc1C(F)(F)F)Nc1ccc2c(c1)C(=O)NC2=O
6 | ≤ 2000 nM | O=C(CSc1ccc(Cl)c(Cl)c1)Nc1ccc2c(c1)C(=O)NC2=O
7 | ≤ 2000 nM | O=C(CSc1cccc(Cl)c1)Nc1ccc2c(c1)C(=O)NC2=O
8 | ≤ 2000 nM | Cc1ccc(SCC(=O)Nc2ccc3c(c2)C(=O)NC3=O)c(C)c1
9 | ≤ 2000 nM | O=C(CSc1ccccc1Cl)Nc1ccc2c(c1)C(=O)NC2=O
10 | ≤ 2000 nM | O=C(CSc1cccc2ccccc12)Nc1ccc2c(c1)C(=O)NC2=O
11 | ≤ 2000 nM | O=C(CSc1ccccc1F)Nc1ccc2c(c1)C(=O)NC2=O
12 | ≤ 2000 nM | Cc1cc(C)cc(SCC(=O)Nc2ccc3c(c2)C(=O)NC3=O)c1
13 | ≤ 2000 nM | O=C(COc1ccccc1)Nc1ccc2c(c1)C(=O)NC2=O
14 | ≤ 2000 nM | O=C(CSc1cccc(Br)c1)Nc1ccc2c(c1)C(=O)NC2=O
15 | ≤ 2000 nM | Cc1ccc(SCC(=O)Nc2ccc3c(c2)C(=O)NC3=O)cc1
16 | ≤ 2000 nM | O=C(CCc1ccccc1)Nc1ccc2c(c1)C(=O)NC2=O
17 | ≤ 2000 nM | Cc1ccccc1NCC(=O)Nc1ccc2c(c1)C(=O)NC2=O
18 | ≤ 2000 nM | O=C(CSc1ccc(F)cc1F)Nc1ccc2c(c1)C(=O)NC2=O
19 | ≤ 2000 nM | O=C(Cc1ccccc1Cl)Nc1ccc2c(c1)C(=O)NC2=O
20 | ≤ 2000 nM | O=C(CSc1ccc(F)cc1)Nc1ccc2c(c1)C(=O)NC2=O
21 | ≤ 2000 nM | O=C(Cc1ccccc1F)Nc1ccc2c(c1)C(=O)NC2=O
22 | ≤ 2000 nM | CC(Oc1ccccc1)C(=O)Nc1ccc2c(c1)C(=O)NC2=O (stereo not given)

Second part, the compound before the results:

Row | Structure (SMILES) | Ki
23 | Cc1cccc(NCC(=O)Nc2ccc3c(c2)C(=O)NC3=O)c1 | ≤ 2000 nM
24 | O=C(COc1ccc(Cl)cc1)Nc1ccc2c(c1)C(=O)NC2=O | ≤ 2000 nM
25 | O=C(CSc1ccc(Cl)cc1Cl)Nc1ccc2c(c1)C(=O)NC2=O | ≤ 2000 nM
26 | O=C(Cc1cccc(C(F)(F)F)c1)Nc1ccc2c(c1)C(=O)NC2=O | ≤ 2000 nM
27 | O=C(Cc1cccc(Cl)c1)Nc1ccc2c(c1)C(=O)NC2=O | ≤ 2000 nM
28 | O=C(CNc1cccc(F)c1)Nc1ccc2c(c1)C(=O)NC2=O | ≤ 2000 nM
29 | O=C(Cc1cccc(O)c1)Nc1ccc2c(c1)C(=O)NC2=O | ≤ 2000 nM
30 | O=C(CNc1cccc2c1CCCC2)Nc1ccc2c(c1)C(=O)NC2=O | ≤ 2000 nM
31 | O=C(Cc1cccc(F)c1)Nc1ccc2c(c1)C(=O)NC2=O | ≤ 2000 nM
32 | COc1cccc(NCC(=O)Nc2ccc3c(c2)C(=O)NC3=O)c1 | ≤ 2000 nM
33 | O=C(Cc1cc(F)cc(F)c1F)Nc1ccc2c(c1)C(=O)NC2=O | ≤ 2000 nM
34 | O=C(Cc1ccc2c(c1)OCO2)Nc1ccc2c(c1)C(=O)NC2=O | ≤ 2000 nM
35 | O=C(Cc1cccc(C(F)(F)F)c1F)Nc1ccc2c(c1)C(=O)NC2=O | ≤ 2000 nM
36 | O=C(CNc1ccc(F)c(Cl)c1)Nc1ccc2c(c1)C(=O)NC2=O | ≤ 2000 nM
37 | Cc1ccc(OCC(=O)Nc2ccc3c(c2)C(=O)NC3=O)cc1 | ≤ 2000 nM
38 | O=C(Cc1ccc(Cl)cc1)Nc1ccc2c(c1)C(=O)NC2=O | ≤ 2000 nM
39 | Cc1ccc(NCC(=O)Nc2ccc3c(c2)C(=O)NC3=O)c(C)c1 | ≤ 2000 nM

Row | Structure (SMILES) | Ki
40 | O=C(Cc1ccc(F)cc1Cl)Nc1ccc2c(c1)C(=O)NC2=O | ≤ 2000 nM
41 | O=C(Cc1cc(Cl)ccc1F)Nc1ccc2c(c1)C(=O)NC2=O | ≤ 2000 nM
42 | O=C(Cc1ccc(F)cc1)Nc1ccc2c(c1)C(=O)NC2=O | ≤ 2000 nM
43 | COc1ccc(NCC(=O)Nc2ccc3c(c2)C(=O)NC3=O)cc1Cl | ≤ 2000 nM
44 | O=C(Cc1cc(F)c(Cl)cc1Cl)Nc1ccc2c(c1)C(=O)NC2=O | ≤ 2000 nM
45 | O=C(Cc1ccc(Cl)c(Cl)c1)Nc1ccc2c(c1)C(=O)NC2=O | ≤ 2000 nM
46 | COc1ccc(CC(=O)Nc2ccc3c(c2)C(=O)NC3=O)cc1 | ≤ 2000 nM
47 | O=C(Cc1ccc(F)cc1F)Nc1ccc2c(c1)C(=O)NC2=O | ≤ 2000 nM
48 | O=C(CNc1cccc2[nH]ccc12)Nc1ccc2c(c1)C(=O)NC2=O | ≤ 2000 nM
49 | O=C(Cc1cc(F)ccc1F)Nc1ccc2c(c1)C(=O)NC2=O | ≤ 2000 nM
50 | O=C(CNc1cccc(Cl)c1)Nc1ccc2c(c1)C(=O)NC2=O | ≤ 2000 nM
51 | COc1cccc(OCC(=O)Nc2ccc3c(c2)C(=O)NC3=O)c1 | ≤ 2000 nM
52 | O=C(Cc1cc2c(cc1Cl)OCO2)Nc1ccc2c(c1)C(=O)NC2=O | ≤ 2000 nM
53 | O=C(CNc1cccc(OCc2ccccc2)c1)Nc1ccc2c(c1)C(=O)NC2=O | ≤ 2000 nM
54 | O=C(Cc1cccc(F)c1F)Nc1ccc2c(c1)C(=O)NC2=O | ≤ 2000 nM
55 | COc1cccc(CC(=O)Nc2ccc3c(c2)C(=O)NC3=O)c1 | ≤ 2000 nM
